# Experimental data taken from ChEMBL document CHEMBL3991601, “The target landscape of clinical kinase drugs” (Science, 2017).
# Activity calls are given as the source filed them. For most assays here, no stated cut-off is given here; in the data, actives have a measured Kd and inactives only a lower limit.
# Biological target: Deoxycytidine kinase (Homo sapiens, UniProt P27707)
# Sequence (P27707 whole entry): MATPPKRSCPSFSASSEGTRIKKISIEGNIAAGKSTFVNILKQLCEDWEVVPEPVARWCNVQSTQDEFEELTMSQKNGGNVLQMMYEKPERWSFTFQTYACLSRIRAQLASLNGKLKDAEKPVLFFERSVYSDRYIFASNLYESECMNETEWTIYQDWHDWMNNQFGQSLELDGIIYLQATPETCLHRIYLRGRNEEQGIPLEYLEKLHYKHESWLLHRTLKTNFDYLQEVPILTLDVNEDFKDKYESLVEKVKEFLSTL
row,Compound,Kd
1,CC(=O)Nc1cccc(-n2c(=O)n(C3CC3)c(=O)c3c(Nc4ccc(I)cc4F)n(C)c(=O)c(C)c32)c1 [TRAMETINIB],> 30 µM (inactive)
2,CN1N=C(N)c2cn([C@@H]3O[C@H](COP(=O)(O)O)[C@@H](O)[C@H]3O)c3ncnc1c23 [TRICIRIBINE PHOSPHATE],> 30 µM (inactive)
3,CC(C)Nc1cc(-c2c[nH]c(C(=O)N[C@H](CO)c3cccc(Cl)c3)c2)c(Cl)cn1 [ULIXERTINIB],> 30 µM (inactive)

# Biological target: Mitogen-activated protein kinase kinase kinase 1 (Homo sapiens, UniProt Q13233)
# Sequence (Q13233 whole entry): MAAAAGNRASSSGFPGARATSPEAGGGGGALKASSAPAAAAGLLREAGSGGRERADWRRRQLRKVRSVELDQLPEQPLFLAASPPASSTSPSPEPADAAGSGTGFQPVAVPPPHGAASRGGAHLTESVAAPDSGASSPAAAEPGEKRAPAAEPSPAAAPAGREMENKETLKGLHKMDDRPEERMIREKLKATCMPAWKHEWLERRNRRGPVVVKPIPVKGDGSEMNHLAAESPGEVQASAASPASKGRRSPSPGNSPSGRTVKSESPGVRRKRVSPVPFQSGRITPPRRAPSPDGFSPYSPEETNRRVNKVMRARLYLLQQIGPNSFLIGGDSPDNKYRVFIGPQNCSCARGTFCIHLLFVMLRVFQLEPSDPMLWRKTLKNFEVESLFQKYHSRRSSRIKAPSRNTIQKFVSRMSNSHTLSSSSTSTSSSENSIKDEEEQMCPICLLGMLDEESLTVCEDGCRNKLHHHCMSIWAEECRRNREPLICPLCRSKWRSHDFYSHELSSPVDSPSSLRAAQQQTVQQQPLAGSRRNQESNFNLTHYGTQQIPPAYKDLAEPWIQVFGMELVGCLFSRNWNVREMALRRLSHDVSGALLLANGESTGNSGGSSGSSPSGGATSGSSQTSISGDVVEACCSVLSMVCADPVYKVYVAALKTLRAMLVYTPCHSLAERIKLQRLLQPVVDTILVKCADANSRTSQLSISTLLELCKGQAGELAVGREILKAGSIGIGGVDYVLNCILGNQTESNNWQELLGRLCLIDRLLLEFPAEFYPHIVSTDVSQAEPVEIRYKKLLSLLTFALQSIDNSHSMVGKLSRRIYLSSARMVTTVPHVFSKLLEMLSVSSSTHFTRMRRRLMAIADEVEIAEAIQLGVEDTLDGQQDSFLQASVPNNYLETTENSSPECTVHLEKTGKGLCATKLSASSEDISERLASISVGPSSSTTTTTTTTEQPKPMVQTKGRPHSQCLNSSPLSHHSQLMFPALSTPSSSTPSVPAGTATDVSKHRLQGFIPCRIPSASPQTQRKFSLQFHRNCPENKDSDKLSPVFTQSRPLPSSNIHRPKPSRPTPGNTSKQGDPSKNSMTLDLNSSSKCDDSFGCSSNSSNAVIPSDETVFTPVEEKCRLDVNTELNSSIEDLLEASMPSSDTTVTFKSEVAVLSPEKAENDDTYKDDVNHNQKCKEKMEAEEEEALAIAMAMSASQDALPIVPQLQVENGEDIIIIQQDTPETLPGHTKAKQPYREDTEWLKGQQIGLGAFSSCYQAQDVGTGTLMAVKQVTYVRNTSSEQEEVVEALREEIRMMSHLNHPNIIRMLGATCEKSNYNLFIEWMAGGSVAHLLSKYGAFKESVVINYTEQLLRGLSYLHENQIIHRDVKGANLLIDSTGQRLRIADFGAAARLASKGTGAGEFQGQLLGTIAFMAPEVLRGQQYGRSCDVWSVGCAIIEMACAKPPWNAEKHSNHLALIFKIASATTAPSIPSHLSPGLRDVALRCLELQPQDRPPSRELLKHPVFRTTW
row,Compound,Kd
1,CC(=O)Nc1cccc(-n2c(=O)n(C3CC3)c(=O)c3c(Nc4ccc(I)cc4F)n(C)c(=O)c(C)c32)c1 [TRAMETINIB],> 30 µM (inactive)
2,CN1N=C(N)c2cn([C@@H]3O[C@H](COP(=O)(O)O)[C@@H](O)[C@H]3O)c3ncnc1c23 [TRICIRIBINE PHOSPHATE],> 30 µM (inactive)
3,CC(C)Nc1cc(-c2c[nH]c(C(=O)N[C@H](CO)c3cccc(Cl)c3)c2)c(Cl)cn1 [ULIXERTINIB],> 30 µM (inactive)

# Biological target: Ribosomal protein S6 kinase alpha-4 (Homo sapiens, UniProt O75676)
row,Compound,Kd
1,CC(=O)Nc1cccc(-n2c(=O)n(C3CC3)c(=O)c3c(Nc4ccc(I)cc4F)n(C)c(=O)c(C)c32)c1 [TRAMETINIB],> 30 µM (inactive)
2,CN1N=C(N)c2cn([C@@H]3O[C@H](COP(=O)(O)O)[C@@H](O)[C@H]3O)c3ncnc1c23 [TRICIRIBINE PHOSPHATE],> 30 µM (inactive)
3,CC(C)Nc1cc(-c2c[nH]c(C(=O)N[C@H](CO)c3cccc(Cl)c3)c2)c(Cl)cn1 [ULIXERTINIB],> 30 µM (inactive)

# Biological target: Non-receptor tyrosine-protein kinase TYK2 (Homo sapiens, UniProt P29597)
# Sequence (P29597 whole entry): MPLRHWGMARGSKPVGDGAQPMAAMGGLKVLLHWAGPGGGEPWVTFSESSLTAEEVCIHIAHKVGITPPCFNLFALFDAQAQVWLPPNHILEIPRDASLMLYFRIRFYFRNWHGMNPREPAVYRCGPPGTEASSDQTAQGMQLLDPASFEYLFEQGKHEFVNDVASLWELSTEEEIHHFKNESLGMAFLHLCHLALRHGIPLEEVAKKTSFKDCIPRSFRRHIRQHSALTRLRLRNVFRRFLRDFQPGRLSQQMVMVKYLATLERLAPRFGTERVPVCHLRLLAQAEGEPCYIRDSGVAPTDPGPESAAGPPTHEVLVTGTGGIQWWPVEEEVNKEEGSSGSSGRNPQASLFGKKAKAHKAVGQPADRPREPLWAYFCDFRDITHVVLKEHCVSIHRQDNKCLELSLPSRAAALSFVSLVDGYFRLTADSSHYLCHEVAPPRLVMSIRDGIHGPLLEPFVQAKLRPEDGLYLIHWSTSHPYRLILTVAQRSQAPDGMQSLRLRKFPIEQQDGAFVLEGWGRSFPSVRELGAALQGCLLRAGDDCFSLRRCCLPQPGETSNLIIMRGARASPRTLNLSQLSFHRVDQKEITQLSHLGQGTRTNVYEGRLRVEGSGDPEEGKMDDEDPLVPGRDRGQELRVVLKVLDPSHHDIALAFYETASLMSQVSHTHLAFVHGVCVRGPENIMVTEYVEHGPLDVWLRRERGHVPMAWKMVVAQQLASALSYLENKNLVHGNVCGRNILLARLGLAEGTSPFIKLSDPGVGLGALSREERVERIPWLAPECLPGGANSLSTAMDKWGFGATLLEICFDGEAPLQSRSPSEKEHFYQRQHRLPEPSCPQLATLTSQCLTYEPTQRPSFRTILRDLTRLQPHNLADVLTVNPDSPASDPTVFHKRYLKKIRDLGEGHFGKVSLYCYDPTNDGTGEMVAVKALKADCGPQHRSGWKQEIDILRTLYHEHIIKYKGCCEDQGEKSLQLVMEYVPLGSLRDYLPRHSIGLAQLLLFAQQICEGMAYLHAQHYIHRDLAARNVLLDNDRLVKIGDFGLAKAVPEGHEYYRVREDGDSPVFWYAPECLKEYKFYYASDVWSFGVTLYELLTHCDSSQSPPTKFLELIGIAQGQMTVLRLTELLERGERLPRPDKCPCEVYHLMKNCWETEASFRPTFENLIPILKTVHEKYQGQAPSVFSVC
row,Compound,Kd
1,CC(=O)Nc1cccc(-n2c(=O)n(C3CC3)c(=O)c3c(Nc4ccc(I)cc4F)n(C)c(=O)c(C)c32)c1 [TRAMETINIB],> 30 µM (inactive)
2,CN1N=C(N)c2cn([C@@H]3O[C@H](COP(=O)(O)O)[C@@H](O)[C@H]3O)c3ncnc1c23 [TRICIRIBINE PHOSPHATE],> 30 µM (inactive)
3,CC(C)Nc1cc(-c2c[nH]c(C(=O)N[C@H](CO)c3cccc(Cl)c3)c2)c(Cl)cn1 [ULIXERTINIB],> 30 µM (inactive)

# Biological target: Atypical kinase COQ8A, mitochondrial (Homo sapiens, UniProt Q8NI60)
# Sequence (Q8NI60 whole entry): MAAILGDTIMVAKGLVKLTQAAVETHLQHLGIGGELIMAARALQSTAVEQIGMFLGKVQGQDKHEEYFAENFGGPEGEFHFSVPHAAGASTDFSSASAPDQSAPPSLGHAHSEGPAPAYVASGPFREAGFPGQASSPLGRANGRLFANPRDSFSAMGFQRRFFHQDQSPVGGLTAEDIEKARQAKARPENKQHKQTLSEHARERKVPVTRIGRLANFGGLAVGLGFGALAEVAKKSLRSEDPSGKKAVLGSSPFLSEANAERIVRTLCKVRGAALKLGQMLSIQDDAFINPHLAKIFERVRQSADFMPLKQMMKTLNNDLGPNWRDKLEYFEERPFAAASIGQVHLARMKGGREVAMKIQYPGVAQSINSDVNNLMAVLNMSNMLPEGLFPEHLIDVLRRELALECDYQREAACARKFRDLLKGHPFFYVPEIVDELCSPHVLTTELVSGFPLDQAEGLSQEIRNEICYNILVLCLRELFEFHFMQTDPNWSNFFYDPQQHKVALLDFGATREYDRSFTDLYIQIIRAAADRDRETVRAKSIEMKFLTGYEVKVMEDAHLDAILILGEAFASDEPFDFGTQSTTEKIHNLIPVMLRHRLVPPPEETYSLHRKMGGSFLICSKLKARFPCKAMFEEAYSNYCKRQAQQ
row,Compound,Kd
1,CC(=O)Nc1cccc(-n2c(=O)n(C3CC3)c(=O)c3c(Nc4ccc(I)cc4F)n(C)c(=O)c(C)c32)c1 [TRAMETINIB],> 30 µM (inactive)
2,CN1N=C(N)c2cn([C@@H]3O[C@H](COP(=O)(O)O)[C@@H](O)[C@H]3O)c3ncnc1c23 [TRICIRIBINE PHOSPHATE],> 30 µM (inactive)
3,CC(C)Nc1cc(-c2c[nH]c(C(=O)N[C@H](CO)c3cccc(Cl)c3)c2)c(Cl)cn1 [ULIXERTINIB],> 30 µM (inactive)

# Biological target: T1, Mitogen-activated protein kinase kinase kinase 2 (Homo sapiens, UniProt Q9Y2U5)
# T1 sequence (Q9Y2U5 whole entry): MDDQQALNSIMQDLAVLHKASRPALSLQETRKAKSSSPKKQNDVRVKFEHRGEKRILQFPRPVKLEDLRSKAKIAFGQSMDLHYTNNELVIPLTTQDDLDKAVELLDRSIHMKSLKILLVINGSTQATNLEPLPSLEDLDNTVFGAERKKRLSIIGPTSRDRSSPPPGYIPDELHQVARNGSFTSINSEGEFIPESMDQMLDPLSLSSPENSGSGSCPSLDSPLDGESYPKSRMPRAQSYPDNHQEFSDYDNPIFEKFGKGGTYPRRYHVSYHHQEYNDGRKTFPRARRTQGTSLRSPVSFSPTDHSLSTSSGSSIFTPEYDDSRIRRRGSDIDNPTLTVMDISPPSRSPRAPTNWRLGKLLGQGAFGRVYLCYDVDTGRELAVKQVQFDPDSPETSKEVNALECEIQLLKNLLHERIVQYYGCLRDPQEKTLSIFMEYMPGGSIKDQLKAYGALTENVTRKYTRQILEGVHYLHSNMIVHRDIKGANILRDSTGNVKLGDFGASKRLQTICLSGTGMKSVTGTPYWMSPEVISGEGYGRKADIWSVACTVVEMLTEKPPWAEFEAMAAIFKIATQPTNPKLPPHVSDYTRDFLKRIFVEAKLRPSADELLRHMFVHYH
row,Compound,Kd
1,CC(=O)Nc1cccc(-n2c(=O)n(C3CC3)c(=O)c3c(Nc4ccc(I)cc4F)n(C)c(=O)c(C)c32)c1 [TRAMETINIB],> 30 µM (inactive)
2,CN1N=C(N)c2cn([C@@H]3O[C@H](COP(=O)(O)O)[C@@H](O)[C@H]3O)c3ncnc1c23 [TRICIRIBINE PHOSPHATE],> 30 µM (inactive)
3,CC(C)Nc1cc(-c2c[nH]c(C(=O)N[C@H](CO)c3cccc(Cl)c3)c2)c(Cl)cn1 [ULIXERTINIB],> 30 µM (inactive)

# Biological target: MAP kinase-activated protein kinase 2 (Homo sapiens, UniProt P49137)
row,Compound,Kd
1,CC(=O)Nc1cccc(-n2c(=O)n(C3CC3)c(=O)c3c(Nc4ccc(I)cc4F)n(C)c(=O)c(C)c32)c1 [TRAMETINIB],> 30 µM (inactive)
2,CN1N=C(N)c2cn([C@@H]3O[C@H](COP(=O)(O)O)[C@@H](O)[C@H]3O)c3ncnc1c23 [TRICIRIBINE PHOSPHATE],> 30 µM (inactive)
3,CC(C)Nc1cc(-c2c[nH]c(C(=O)N[C@H](CO)c3cccc(Cl)c3)c2)c(Cl)cn1 [ULIXERTINIB],> 30 µM (inactive)

# Biological target: T2, ATP-dependent 6-phosphofructokinase, platelet type (Homo sapiens, UniProt Q01813)
# T2 sequence (Q01813 whole entry): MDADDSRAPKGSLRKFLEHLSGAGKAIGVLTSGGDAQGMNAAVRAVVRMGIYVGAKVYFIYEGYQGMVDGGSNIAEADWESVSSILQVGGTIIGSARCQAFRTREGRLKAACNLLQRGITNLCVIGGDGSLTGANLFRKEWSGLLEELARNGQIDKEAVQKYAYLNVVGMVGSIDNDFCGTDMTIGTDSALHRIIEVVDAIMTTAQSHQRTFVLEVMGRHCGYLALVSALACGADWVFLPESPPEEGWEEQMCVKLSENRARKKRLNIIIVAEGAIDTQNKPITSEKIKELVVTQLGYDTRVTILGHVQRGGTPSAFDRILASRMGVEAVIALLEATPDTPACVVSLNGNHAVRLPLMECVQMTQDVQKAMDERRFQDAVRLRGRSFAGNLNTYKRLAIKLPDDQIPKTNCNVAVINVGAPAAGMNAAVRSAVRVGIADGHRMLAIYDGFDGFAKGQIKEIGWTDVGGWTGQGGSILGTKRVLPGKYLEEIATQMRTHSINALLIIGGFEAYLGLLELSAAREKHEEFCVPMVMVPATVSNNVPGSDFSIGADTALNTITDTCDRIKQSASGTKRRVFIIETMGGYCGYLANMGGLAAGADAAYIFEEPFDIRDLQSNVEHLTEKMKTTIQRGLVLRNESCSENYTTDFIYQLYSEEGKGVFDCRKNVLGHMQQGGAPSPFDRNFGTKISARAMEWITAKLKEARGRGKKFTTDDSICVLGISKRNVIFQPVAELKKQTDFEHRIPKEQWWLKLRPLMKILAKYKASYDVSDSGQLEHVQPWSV
row,Compound,Kd
1,CC(=O)Nc1cccc(-n2c(=O)n(C3CC3)c(=O)c3c(Nc4ccc(I)cc4F)n(C)c(=O)c(C)c32)c1 [TRAMETINIB],> 30 µM (inactive)
2,CN1N=C(N)c2cn([C@@H]3O[C@H](COP(=O)(O)O)[C@@H](O)[C@H]3O)c3ncnc1c23 [TRICIRIBINE PHOSPHATE],> 30 µM (inactive)
3,CC(C)Nc1cc(-c2c[nH]c(C(=O)N[C@H](CO)c3cccc(Cl)c3)c2)c(Cl)cn1 [ULIXERTINIB],> 30 µM (inactive)

# Biological target: Tyrosine-protein kinase Lyn (Homo sapiens, UniProt P07948)
# Sequence (P07948 whole entry): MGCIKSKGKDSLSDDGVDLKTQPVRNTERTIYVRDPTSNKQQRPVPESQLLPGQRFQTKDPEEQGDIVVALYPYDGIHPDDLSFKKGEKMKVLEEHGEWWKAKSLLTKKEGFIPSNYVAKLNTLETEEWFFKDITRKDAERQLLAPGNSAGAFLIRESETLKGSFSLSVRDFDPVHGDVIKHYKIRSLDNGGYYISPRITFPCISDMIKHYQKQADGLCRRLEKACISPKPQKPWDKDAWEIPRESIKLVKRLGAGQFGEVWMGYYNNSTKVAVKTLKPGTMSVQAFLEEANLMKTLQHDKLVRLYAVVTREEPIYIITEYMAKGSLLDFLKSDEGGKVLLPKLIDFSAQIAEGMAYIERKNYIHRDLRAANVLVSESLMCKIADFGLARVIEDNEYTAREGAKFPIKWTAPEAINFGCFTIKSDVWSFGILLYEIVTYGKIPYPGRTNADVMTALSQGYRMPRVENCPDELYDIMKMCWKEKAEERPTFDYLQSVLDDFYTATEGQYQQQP
row,Compound,Kd
1,CC(=O)Nc1cccc(-n2c(=O)n(C3CC3)c(=O)c3c(Nc4ccc(I)cc4F)n(C)c(=O)c(C)c32)c1 [TRAMETINIB],> 30 µM (inactive)
2,CN1N=C(N)c2cn([C@@H]3O[C@H](COP(=O)(O)O)[C@@H](O)[C@H]3O)c3ncnc1c23 [TRICIRIBINE PHOSPHATE],> 30 µM (inactive)
3,CC(C)Nc1cc(-c2c[nH]c(C(=O)N[C@H](CO)c3cccc(Cl)c3)c2)c(Cl)cn1 [ULIXERTINIB],> 30 µM (inactive)

# Biological target: STE20-like serine/threonine-protein kinase (Homo sapiens, UniProt Q9H2G2)
row,Compound,Kd
1,CC(=O)Nc1cccc(-n2c(=O)n(C3CC3)c(=O)c3c(Nc4ccc(I)cc4F)n(C)c(=O)c(C)c32)c1 [TRAMETINIB],> 30 µM (inactive)
2,CN1N=C(N)c2cn([C@@H]3O[C@H](COP(=O)(O)O)[C@@H](O)[C@H]3O)c3ncnc1c23 [TRICIRIBINE PHOSPHATE],> 30 µM (inactive)
3,CC(C)Nc1cc(-c2c[nH]c(C(=O)N[C@H](CO)c3cccc(Cl)c3)c2)c(Cl)cn1 [ULIXERTINIB],> 30 µM (inactive)

# Biological target: Tyrosine-protein kinase Fer (Homo sapiens, UniProt P16591)
# Sequence (P16591 whole entry): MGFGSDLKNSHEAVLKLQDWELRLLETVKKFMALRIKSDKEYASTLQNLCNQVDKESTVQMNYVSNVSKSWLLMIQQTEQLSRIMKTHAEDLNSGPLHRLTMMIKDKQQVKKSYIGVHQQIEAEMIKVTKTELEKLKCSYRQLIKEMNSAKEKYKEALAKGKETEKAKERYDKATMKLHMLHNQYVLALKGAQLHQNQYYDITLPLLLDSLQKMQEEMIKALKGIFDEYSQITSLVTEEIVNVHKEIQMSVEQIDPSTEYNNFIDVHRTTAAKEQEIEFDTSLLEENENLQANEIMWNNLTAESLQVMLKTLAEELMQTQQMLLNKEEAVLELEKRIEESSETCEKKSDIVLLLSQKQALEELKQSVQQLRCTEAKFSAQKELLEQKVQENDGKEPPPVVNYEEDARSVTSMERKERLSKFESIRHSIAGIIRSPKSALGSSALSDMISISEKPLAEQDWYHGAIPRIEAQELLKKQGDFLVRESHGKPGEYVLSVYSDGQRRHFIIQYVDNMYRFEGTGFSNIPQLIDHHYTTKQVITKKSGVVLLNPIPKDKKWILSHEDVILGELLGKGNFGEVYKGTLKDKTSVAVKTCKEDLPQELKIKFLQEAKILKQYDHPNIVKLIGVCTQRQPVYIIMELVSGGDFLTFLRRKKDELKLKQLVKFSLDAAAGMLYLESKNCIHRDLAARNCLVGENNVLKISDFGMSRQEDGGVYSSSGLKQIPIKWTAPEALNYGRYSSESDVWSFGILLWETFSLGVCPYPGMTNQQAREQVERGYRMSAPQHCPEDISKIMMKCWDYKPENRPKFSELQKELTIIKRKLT
row,Compound,Kd
1,CC(=O)Nc1cccc(-n2c(=O)n(C3CC3)c(=O)c3c(Nc4ccc(I)cc4F)n(C)c(=O)c(C)c32)c1 [TRAMETINIB],> 30 µM (inactive)
2,CN1N=C(N)c2cn([C@@H]3O[C@H](COP(=O)(O)O)[C@@H](O)[C@H]3O)c3ncnc1c23 [TRICIRIBINE PHOSPHATE],> 30 µM (inactive)
3,CC(C)Nc1cc(-c2c[nH]c(C(=O)N[C@H](CO)c3cccc(Cl)c3)c2)c(Cl)cn1 [ULIXERTINIB],> 30 µM (inactive)

# Biological target: T3, Serine/threonine-protein kinase TAO1 (Homo sapiens, UniProt Q7L7X3)
# T3 sequence (Q7L7X3 whole entry): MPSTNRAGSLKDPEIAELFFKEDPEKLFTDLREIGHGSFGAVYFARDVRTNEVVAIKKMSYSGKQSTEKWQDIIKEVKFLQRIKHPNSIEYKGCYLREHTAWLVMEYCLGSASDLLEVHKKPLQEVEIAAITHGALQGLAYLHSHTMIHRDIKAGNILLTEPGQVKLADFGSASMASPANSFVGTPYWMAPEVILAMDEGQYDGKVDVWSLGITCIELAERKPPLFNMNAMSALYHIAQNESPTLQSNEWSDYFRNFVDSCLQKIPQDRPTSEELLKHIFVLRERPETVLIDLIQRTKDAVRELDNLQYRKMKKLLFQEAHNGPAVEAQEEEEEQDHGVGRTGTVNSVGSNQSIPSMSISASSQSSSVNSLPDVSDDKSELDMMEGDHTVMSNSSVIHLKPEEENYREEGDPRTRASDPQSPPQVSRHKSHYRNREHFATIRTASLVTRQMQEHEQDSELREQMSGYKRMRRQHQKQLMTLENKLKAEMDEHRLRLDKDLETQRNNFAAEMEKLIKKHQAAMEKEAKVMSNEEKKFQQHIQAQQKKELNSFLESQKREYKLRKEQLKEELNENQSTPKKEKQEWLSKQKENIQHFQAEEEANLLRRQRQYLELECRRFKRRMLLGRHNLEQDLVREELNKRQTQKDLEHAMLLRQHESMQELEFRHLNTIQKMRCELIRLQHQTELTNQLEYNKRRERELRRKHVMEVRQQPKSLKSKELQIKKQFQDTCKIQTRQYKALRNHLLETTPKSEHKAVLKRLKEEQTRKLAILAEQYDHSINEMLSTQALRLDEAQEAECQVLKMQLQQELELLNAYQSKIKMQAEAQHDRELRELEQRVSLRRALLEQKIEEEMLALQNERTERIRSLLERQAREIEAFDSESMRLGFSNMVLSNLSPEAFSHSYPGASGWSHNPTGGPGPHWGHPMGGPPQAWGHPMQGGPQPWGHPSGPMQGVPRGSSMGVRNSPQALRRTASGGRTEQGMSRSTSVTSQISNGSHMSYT
row,Compound,Kd
1,CC(=O)Nc1cccc(-n2c(=O)n(C3CC3)c(=O)c3c(Nc4ccc(I)cc4F)n(C)c(=O)c(C)c32)c1 [TRAMETINIB],> 30 µM (inactive)
2,CN1N=C(N)c2cn([C@@H]3O[C@H](COP(=O)(O)O)[C@@H](O)[C@H]3O)c3ncnc1c23 [TRICIRIBINE PHOSPHATE],> 30 µM (inactive)
3,CC(C)Nc1cc(-c2c[nH]c(C(=O)N[C@H](CO)c3cccc(Cl)c3)c2)c(Cl)cn1 [ULIXERTINIB],0.388 µM (active)

# Biological target: ATP-dependent RNA helicase DDX3X (Homo sapiens, UniProt O00571)
row,Compound,Kd
1,CC(=O)Nc1cccc(-n2c(=O)n(C3CC3)c(=O)c3c(Nc4ccc(I)cc4F)n(C)c(=O)c(C)c32)c1 [TRAMETINIB],> 30 µM (inactive)
2,CN1N=C(N)c2cn([C@@H]3O[C@H](COP(=O)(O)O)[C@@H](O)[C@H]3O)c3ncnc1c23 [TRICIRIBINE PHOSPHATE],> 30 µM (inactive)
3,CC(C)Nc1cc(-c2c[nH]c(C(=O)N[C@H](CO)c3cccc(Cl)c3)c2)c(Cl)cn1 [ULIXERTINIB],> 30 µM (inactive)
